Results on 1 compound are retold here after ChEMBL document CHEMBL5661965, “CI-1033, a pan-erbB tyrosine kinase inhibitor” (Semin Oncol, 2001).

What all share (assay type): functional
The test system of test [1] is A-431. Description: Antitumor activity against human A-431 cells xenografted in mouse assessed as reduction in average tumor volume at 1.25 to 40 mg/kg/day, po started on day 14 post-implant, stopped on day 66, and then restarted on day 76 for 2 additional weeks. The note with it: dose 1.25-40 mg/kg/day, read-out: MED.
The test system of test [2] is A-431. Briefly: Antitumor activity against human A-431 cells xenografted in mouse assessed as average tumor volume at 20 to 40 mg/kg/day, po started on day 14 post-implant and measured on day 23 (reference value: >1200 mg). The note with it: dose 20-40 mg/kg/day, time 23 day. (In xenograft studies the graft and the host belong to different species.)
Test [3] relates to A-431. Description: Antitumor activity against human A-431 cells xenografted in mouse assessed as average tumor volume at 1.25 to 10 mg/kg/day, po started on day 14 post-implant and measured on day 23 (reference value: >1200 mg). The note with it: dose 1.25-10 mg/kg/day, time 23 day.

With `C=CC(=O)Nc1cc2c(Nc3ccc(F)c(Cl)c3)ncnc2cc1OCCCN1CCOCC1.Cl.Cl` [CANERTINIB DIHYDROCHLORIDE], in the test on A-431 [1], the minimal effective dose is 1.25 mg/kg/day. The Activity result was “<=100 mg” in the test on A-431 [2] and 175 mg with A-431 [3].
